# Tested on: MAPK (ERK)
# Assay: ERK phosphorylation (Phospho-ERK/total ERK) in normal human keratinocytes HEKa, Western blot
# Type: cell-based
# Details: 2 hours treatment; for effect on ERK activation: concentration not given (0.3 μM and 1 μM tested); for ERK activation (increase in the relative amount of Phosphorylated ERK): 0.3 μM (FIGS. 1A and 1C)
# Method: Normal human keratinocytes HEKa (purchased from Gibco Rhenium) were seeded in 10 cm dishes (300,000 cells/dish) and incubated overnight at 37° C., 5% CO2. The medium was then replaced with a starvation medium for 2 hours and the cells were subsequently treated for 2 additional hours with the test compounds (i.e BRAF inhibitors). […]
# Post incubation, the cells were lysed with RIPA buffer and the protein extracts were analyzed by Western blot to detect Phospho-ERK and total ERK using suitable antibodies. Untreated cells and 0.1% DMSO treated cells were used as negative control and Human Keratinocyte Growth Supplement (HKGS) (Gibco) was used as a positive control.
# Western Blot: 7.5 μg of total extract was loaded on 10% or 12% acrylamide gel. Following transfer, the membranes were blocked with TBST/5% skimmed milk and then incubated with Mouse anti Phospho-ERK (1:1000 in TBST 5% BSA, ON at 4° C.) and goat anti Mouse HRP (1:10,000 in TBST 5% BSA, 1-hour RT). The membranes were exposed using SuperSignal West Pico Chemiluminescent Substrate.
# HRP was subsequently inactivated by incubating the membranes for 1 hour with 0.5% sodium azide. Following washes and ECL exposure in order to ensure absence of signal, the membranes were re-blocked for 15 min with TBST/5% skimmed milk and then incubated with Rabbit anti total ERK2 (1:500 in TBST 5% BSA, ON at 4° C.), goat anti Rabbit HRP (1:5,000 in TBST 5% BSA, 1-hour RT) and finally exposed using the SuperSignal West Pico Chemiluminescent Substrate. The films were scanned and the signal was quantified using ImageJ software. The results were calculated as Phospho-ERK/total ERK.
# In this experiment, the effect of the BRAF inhibitor compounds disclosed herein on MAPK (ERK) phosphorylation in human keratinocytes (HEKa) was investigated. Phosphorylation of ERK served as an indicator for ERK activation.
# In order to determine the effect of various BRAF inhibitors on ERK activation in relevant keratinocytes cells, the level of ERK phosphorylation was measured in normal human keratinocytes in response to treatment with the BRAF inhibitors.
SMILES,effect on ERK activation,ERK activation (increase in the relative amount of Phosphorylated ERK)
CNc1ncc2ccc(-c3c(C)ccc4c(Nc5cc(O)cc(O)c5)nccc34)cc2n1 [LUT001],moderate effect on ERK activation,–
CNc1cc(-c2cccnc2Nc2c(C)ccc3c(Nc4ccc(I)cc4F)nccc23)ncn1 [LUT156],–,significant ERK activation
C#Cc1cccc(Nc2nccc3c(-c4ccc5nc(NC)ncc5c4)c(C)ccc23)c1 [LUT192],moderate effect on ERK activation,–
CNc1ncc2cc(-c3c(C)ccc4c(Nc5ccc(F)c(Cl)c5)nccc34)ccc2n1 [LUT195],moderate effect on ERK activation,–
CNc1ncc2cc(-c3c(C)ccc4c(Nc5ccc(Cl)c(C(F)(F)F)c5)nccc34)ccc2n1 [LUT197],–,significant ERK activation
